According to US9388149B2, “Disubstituted 3,4-diamino-3-cyclobutene-1,2-dione compounds for use in the treatment of chemokine-mediated diseases” (GALDERMA RESEARCH & DEVELOPMENT, priority 2011, dated 2016):

Key:
[1] = system: receptors of CXCR1 and CXCR2 type; conditions: pseudo-irreversible dissociation, literature value; cited from earlier work
[2] = system: panel of 20 chemokine receptors; assay: Receptor profiling on a panel of 20 chemokine receptors (calcium flux); conditions: result in words
Procedure: (§3) Measurement of calcium flux on cells: The experiments were carried out on the FLIPR TETRA® platform from Molecular Devices.
(§4) Each cell line expressing a chemokine receptor was established on the basis of the Chem-1 cell stably expressing the recombinant form of the chemokine receptor and also an associated G protein, with the aim of coupling the receptor to the calcium signalling pathway.

CCR4 = CCR4 (Homo sapiens (Human), UniProt P51679); assay: Calcium flux on Chem-1 cells expressing the chemokine receptor (FLIPR TETRA), antagonist mode
Procedure: as §3, §4
(§5) 21 receptors belonging to the chemokine receptor family (CCRs and CXCRs) were analyzed.

CXCR3 = CXCR3 (Homo sapiens (Human), UniProt P49682); assay: as above; conditions: IC50 CXCR3, antagonist activity, reference agonist at AC80
Procedure: as §3, §4, §5

CCR7 = CCR7 (Homo sapiens (Human), UniProt P32248); assay: as above; type: cell-based; conditions: antagonist activity, reference agonist at AC80
Procedure: as §3, §4, §5

CXCR2 receptor = CXCR2 receptor (Homo sapiens (Human), UniProt P25025); assay: β-arrestin recruitment test, PathHunter HEK293-CXCR2 cells stimulated with CXCL8; type: cell-based; conditions: inhibition of CXCL8 (10 nM) induced β-arrestin 2 recruitment; *9999 signifies not active
Procedure: (§1) The in vitro affinity of the compounds of the present invention for the CXCR1 and CXCR2 receptors was determined on a functional test of the β-arrestin recruitment after receptor activation type.
(§2) β-Arrestin recruitment test: “PathHunter HEK293-CXCR2” or “U2OS hCXCR1 β-arrestin” cells (DiscoveRx Corporation) were seeded overnight at 10 000 cells/well (384-well format) in 20 μl of Opti MEM I medium. A preincubation with the antagonist or the vehicle for 30 min at 37° C. and 5% CO2 was followed by 60 minutes of stimulation with CXCL8 at 37° C. and 5% CO2. The cells were then placed at ambient temperature for 30 minutes. The PathHunter detection reagent (DiscoveRx Corporation) was added. […] The data were analyzed by means of a non-linear curve procedure using the XLFit4 exploitation software (IDBS) and the IC50 values were determined.

CCR6 = CCR6 (Homo sapiens (Human), UniProt P51684); assay: Calcium flux on Chem-1 cells expressing the chemokine receptor (FLIPR TETRA), antagonist mode; type: cell-based; conditions: antagonist activity, reference agonist at AC80
Procedure: as §3, §4, §5

[3] = Metabolic stabilities in hepatocytes; type: in vitro ADME; conditions: compound 1 μM, sampling up to 24 hours; for half-life at 1 μM: human, hepatocytes, read-out: Half-life time
Procedure: The human hepatocytes were supplied by Biopredic in 24-well plates.
The samples of incubation medium after addition of the test compound were taken at times t=0, 1, 2, 4, 6 and 24 hours.

FPR1 = FPR1 (Homo sapiens (Human), UniProt P21462); assay: Calcium flux on Chem-1 cells expressing the receptor (FLIPR TETRA), antagonist mode; type: cell-based; conditions: antagonist activity, reference agonist at AC80
Procedure: as §3, §4

[4] = Metabolic stabilities in hepatic microsomes; conditions: hepatic microsomes, pH 7.4, Half-life time (min), hepatic microsomes 0.5 mg/ml protein, compound 1 μM, sampling up to 60 minutes
Procedure: Hepatic microsomes (Becton Dickinson) were incubated at a protein concentration of 0.5 mg/ml in the reaction medium.
The reaction medium of the microsomes was composed of phosphate buffer, pH: 7.4 at 100 mM, of MgCl2 at 100 mM (50/50), of an ATP-generating system composed of a mixture of nicotinamide adenine diphosphate (NADP), of glucose-6-phosphate (G6P) at 1 mg/ml and of glucose-6-phosphate dehydrogenase (G6PDH) at 4 U/ml. The compounds were tested at 1 μM (0.1% DMSO).
The samples of incubation medium after addition of the microsomes were taken at times 5, 10, 15, 30 and 60 minutes. At each time, the metabolic reaction was stopped by adding methanol (1 volume incubation medium/3 volumes of methanol). The disappearance of the parent product was measured by LC/MS/MS analysis. The time for which 50% of parent product disappeared (T1/2) was calculated from the kinetics of disappearance of the parent product as a function of time.

CCR8 = CCR8 (Homo sapiens (Human), UniProt P51685); assay: Calcium flux on Chem-1 cells expressing the chemokine receptor (FLIPR TETRA), antagonist mode; type: cell-based; conditions: antagonist activity, reference agonist at AC80
Procedure: as §3, §4, §5

CXCR1 receptor = CXCR1 receptor (Homo sapiens (Human), UniProt P25024); assay: β-arrestin recruitment test, U2OS hCXCR1 β-arrestin cells stimulated with CXCL8; type: cell-based; conditions: inhibition of CXCL8 (10 nM) induced β-arrestin 2 recruitment; *9999 signifies not active
Procedure: as §1, §2

CCR4, sequence (P51679 whole entry): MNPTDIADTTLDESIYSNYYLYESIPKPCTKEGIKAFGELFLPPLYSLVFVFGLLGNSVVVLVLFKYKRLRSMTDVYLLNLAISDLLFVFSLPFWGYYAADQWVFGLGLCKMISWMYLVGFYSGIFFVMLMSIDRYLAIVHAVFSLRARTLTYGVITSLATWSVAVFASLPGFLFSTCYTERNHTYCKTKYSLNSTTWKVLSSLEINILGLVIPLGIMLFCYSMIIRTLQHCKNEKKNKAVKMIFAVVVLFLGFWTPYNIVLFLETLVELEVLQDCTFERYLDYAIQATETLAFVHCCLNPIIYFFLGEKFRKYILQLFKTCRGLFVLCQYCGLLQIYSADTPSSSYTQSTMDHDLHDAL
CXCR2 receptor, sequence (P25025 whole entry): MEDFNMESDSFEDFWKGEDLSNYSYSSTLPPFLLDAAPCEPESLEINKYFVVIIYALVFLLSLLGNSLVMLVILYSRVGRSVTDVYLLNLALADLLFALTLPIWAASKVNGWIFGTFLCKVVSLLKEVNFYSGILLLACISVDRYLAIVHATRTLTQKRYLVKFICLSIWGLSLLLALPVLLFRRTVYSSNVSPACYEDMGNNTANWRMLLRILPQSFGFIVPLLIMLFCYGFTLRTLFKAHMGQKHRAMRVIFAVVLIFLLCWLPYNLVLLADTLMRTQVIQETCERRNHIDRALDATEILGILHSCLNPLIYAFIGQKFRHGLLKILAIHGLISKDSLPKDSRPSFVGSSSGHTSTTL
CXCR3, sequence (P49682 whole entry): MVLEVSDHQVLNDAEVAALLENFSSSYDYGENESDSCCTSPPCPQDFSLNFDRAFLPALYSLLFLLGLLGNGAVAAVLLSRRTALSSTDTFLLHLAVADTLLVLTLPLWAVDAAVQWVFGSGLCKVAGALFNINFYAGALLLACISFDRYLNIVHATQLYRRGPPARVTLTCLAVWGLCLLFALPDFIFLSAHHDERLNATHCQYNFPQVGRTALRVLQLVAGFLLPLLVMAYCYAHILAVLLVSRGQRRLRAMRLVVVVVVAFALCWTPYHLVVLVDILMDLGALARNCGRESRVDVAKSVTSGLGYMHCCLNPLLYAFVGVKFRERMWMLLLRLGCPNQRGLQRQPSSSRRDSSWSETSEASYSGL
CCR6, sequence (P51684 whole entry): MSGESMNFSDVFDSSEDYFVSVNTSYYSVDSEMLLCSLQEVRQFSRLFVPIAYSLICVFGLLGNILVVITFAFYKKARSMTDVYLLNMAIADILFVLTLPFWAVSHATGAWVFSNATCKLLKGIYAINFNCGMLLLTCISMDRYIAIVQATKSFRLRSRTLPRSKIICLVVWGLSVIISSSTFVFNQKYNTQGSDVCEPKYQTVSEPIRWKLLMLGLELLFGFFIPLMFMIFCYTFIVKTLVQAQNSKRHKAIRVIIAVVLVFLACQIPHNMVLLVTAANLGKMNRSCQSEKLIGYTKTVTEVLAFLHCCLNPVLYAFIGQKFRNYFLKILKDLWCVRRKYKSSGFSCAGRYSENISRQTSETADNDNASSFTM
CXCR1 receptor, sequence (P25024 whole entry): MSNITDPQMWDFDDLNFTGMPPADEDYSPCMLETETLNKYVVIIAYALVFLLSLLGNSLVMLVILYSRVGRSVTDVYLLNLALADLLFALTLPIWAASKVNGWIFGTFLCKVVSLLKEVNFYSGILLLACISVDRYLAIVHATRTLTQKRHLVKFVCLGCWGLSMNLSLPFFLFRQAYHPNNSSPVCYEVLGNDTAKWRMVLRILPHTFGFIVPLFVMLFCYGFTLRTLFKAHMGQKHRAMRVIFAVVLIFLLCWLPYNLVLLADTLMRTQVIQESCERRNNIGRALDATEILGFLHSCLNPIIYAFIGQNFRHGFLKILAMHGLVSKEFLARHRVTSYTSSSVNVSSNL
CCR8, sequence (P51685 whole entry): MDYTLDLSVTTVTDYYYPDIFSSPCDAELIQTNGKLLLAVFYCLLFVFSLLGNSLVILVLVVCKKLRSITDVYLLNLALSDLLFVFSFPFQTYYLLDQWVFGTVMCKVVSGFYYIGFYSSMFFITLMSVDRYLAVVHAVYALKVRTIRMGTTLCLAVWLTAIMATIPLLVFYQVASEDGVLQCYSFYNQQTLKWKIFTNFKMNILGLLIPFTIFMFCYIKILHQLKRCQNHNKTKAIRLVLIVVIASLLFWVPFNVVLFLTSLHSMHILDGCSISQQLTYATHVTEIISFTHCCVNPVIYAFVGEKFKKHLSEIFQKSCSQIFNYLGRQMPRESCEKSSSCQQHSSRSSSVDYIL
FPR1, sequence (P21462 whole entry): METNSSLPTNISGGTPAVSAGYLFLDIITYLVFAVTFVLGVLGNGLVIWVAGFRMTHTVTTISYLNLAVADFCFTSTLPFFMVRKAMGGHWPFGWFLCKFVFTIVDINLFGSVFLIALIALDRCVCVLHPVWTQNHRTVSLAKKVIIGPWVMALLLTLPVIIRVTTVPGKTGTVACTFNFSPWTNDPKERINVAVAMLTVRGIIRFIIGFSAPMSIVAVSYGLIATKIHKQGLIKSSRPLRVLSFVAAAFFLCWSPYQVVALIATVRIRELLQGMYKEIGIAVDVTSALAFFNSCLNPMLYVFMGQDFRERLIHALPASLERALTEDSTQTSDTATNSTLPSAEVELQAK
CCR7, sequence (P32248 25-378): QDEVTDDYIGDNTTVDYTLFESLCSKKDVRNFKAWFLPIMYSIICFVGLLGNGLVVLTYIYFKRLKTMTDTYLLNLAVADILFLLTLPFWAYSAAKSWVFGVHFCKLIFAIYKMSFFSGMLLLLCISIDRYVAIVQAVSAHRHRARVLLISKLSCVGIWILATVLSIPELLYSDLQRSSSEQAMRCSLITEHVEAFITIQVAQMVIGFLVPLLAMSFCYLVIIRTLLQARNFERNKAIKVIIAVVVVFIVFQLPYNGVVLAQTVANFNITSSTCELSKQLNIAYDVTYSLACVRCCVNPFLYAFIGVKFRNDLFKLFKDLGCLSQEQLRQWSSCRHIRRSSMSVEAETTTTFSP

Structure (SMILES) | activity on the chemokine receptors of the panel (CCR4, CCR6, CCR7, CCR8, CXCR3, FPR1) [2] | IC50 (CCR4) | IC50 (CXCR3) | IC50 (CCR7) | IC50 (CXCR2 receptor) | IC50 (CCR6) | half-life at 1 μM [3] | IC50 (FPR1) | half-life at 1 μM [4] | IC50 (CCR8) | Half-life time ([3]; human hepatocytes) | IC50 (CXCR1 receptor) | dissociation time [1]
Cc1ccc(C(Nc2c(Nc3cccc(C(=O)N(C)C)c3O)c(=O)c2=O)C2(C)CCCO2)o1 (single isomer, unassigned) [Example 1 (Enantiomer 2 of diastereoisomer 2), 2-Hydroxy-N,N-dimethyl-3-(2-{[(5-methylfuran-2-yl)-(2-methyltetrahydrofuran-2-yl)methyl]amino}-3,4-dioxo-cyclobut-1-enylamino)benzamide] |  | 0.41 µM | 0.0013 µM | 8.7 µM | 53 nM | 0.002 µM | 300 min |  |  |  |  |  | 
Cc1ccc(C(Nc2c(Nc3cccc(C(=O)N(C)C)c3O)c(=O)c2=O)C2CCCS2)o1 (single isomer, unassigned) [2 (diastereoisomer 2), 2-Hydroxy-N,N-dimethyl-3-(2-{[(5-methylfuran-2-yl)-(tetrahydrothiophen-2-yl)methyl]amino}-3,4-dioxo-cyclobut-1-enylamino)benzamide] |  |  |  |  | 35 nM |  |  | 6.5 µM | 11 min | 0.62 µM |  |  | 
Cc1ccc(C(Nc2c(Nc3cccc(C(=O)N(C)C)c3O)c(=O)c2=O)C2(C)CCCO2)o1 (single isomer, unassigned) [1 (diastereoisomer 2), 2-hydroxy-N,N-dimethyl-3-(2-{[(5-methylfuran-2-yl)-(2-methyltetrahydrofuran-2-yl)methyl]amino}-3,4-dioxo-cyclobut-1-enylamino)benzamide] |  |  | 0.055 µM |  | 94 nM | 0.0022 µM |  |  | 27 min |  | 539 min |  | 
COC(=O)CN(C)C(=O)c1cccc(Nc2c(N[C@@H](c3ccc(C)o3)C3CCCS3)c(=O)c2=O)c1O (single isomer, unassigned) [Example 19] |  | 0.0081 µM | 0.51 µM |  | 20 nM | 0.011 µM | 214 min |  | 8 min |  |  | 42 nM | 

The next lines start with results.

activity on the chemokine receptors of the panel (CCR4, CCR6, CCR7, CCR8, CXCR3, FPR1) [2] | IC50 (CCR4) | IC50 (CXCR3) | IC50 (CCR7) | IC50 (CXCR2 receptor) | IC50 (CCR6) | half-life at 1 μM [3] | IC50 (FPR1) | half-life at 1 μM [4] | IC50 (CCR8) | Half-life time ([3]; human hepatocytes) | IC50 (CXCR1 receptor) | Structure (SMILES) | dissociation time [1]
inactive or not very active at all |  |  |  |  |  |  |  |  |  |  |  | CC[C@@H](Nc1c(Nc2cccc(C(=O)N(C)C)c2O)c(=O)c1=O)c1ccc(C)o1 [SCH-527123] | about 22 h
 | 0.0094 µM | 0.15 µM |  | 17 nM |  | 49 min |  | 7 min |  |  | 30 nM | Cc1ccc(C(Nc2c(Nc3ccc(Cl)c(S(=O)(=O)N4CCN(C)CC4)c3O)c(=O)c2=O)C2CCCS2)o1 (single isomer, unassigned; (-)) [Example 22, (−)-3-[4-chloro-2-hydroxy-3-(4-methylpiperazine-1-sulfonyl)phenylamino]-4-{[(5-methylfuran-2-yl)-(tetrahydrothiophen-2-yl)methyl]amino}cyclobut-3-ene-1,2-dione] | 
